In BindingDB's records for patent US20250313563 (The Broad Institute, 2025) one finds IC50 data, which are given here for 34 molecules.

Test [1] addresses Glycogen synthase kinase-3 alpha (Homo sapiens, UniProt P49840). The test is described as follows: TR-FRET Assay. In a few lines:
(§1)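 Signal is measured as TR-FRET between a terbium anti-phospho-Ser641 antibody and streptavidin-d2, added after an EDTA quench. Compounds are preincubated 30 min in assay buffer.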
On the technique in general: TR-FRET usually uses a lanthanide donor and a delayed reading to cut background.

The target of test [2] is Glycogen synthase kinase-3 beta (Homo sapiens, UniProt P49841). The test is described as follows: TR-FRET Assay. In a few lines: as §1

Molecules are shown by their SMILES. Where “and” joins values, the source holds several entries; their conditions need not be identical. Equal values may be shown once. Bounds are passed on as bounds.

Chain of Glycogen synthase kinase-3 beta (P49841 whole entry): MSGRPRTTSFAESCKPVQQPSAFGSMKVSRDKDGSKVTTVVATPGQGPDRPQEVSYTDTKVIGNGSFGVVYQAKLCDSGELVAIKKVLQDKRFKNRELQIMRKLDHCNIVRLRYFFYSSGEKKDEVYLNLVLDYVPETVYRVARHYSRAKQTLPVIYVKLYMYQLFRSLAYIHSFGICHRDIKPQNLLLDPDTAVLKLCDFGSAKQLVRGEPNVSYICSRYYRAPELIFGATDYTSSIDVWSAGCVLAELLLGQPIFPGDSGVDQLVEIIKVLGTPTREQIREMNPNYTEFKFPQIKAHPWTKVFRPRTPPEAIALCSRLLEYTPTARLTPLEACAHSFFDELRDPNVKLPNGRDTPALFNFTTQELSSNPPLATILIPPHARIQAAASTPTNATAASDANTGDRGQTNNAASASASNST
Chain of Glycogen synthase kinase-3 alpha (P49840 whole entry): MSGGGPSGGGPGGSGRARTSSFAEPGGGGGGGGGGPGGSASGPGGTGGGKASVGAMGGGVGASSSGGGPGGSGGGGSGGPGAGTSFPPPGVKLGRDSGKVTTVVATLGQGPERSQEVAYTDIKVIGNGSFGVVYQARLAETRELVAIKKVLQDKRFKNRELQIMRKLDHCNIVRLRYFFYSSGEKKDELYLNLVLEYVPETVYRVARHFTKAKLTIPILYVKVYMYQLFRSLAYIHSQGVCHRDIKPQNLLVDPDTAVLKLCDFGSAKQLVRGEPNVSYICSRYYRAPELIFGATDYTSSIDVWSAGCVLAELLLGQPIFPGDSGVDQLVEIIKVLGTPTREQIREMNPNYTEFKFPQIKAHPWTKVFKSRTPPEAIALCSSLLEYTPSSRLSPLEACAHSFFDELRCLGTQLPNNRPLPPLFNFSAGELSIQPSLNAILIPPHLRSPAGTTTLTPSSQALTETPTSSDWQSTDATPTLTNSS

As usually defined, the IC50 is the concentration at which inhibition is half-maximal. A low value points to higher potency. On to `CC1(C)CC(=O)C2=C(C1)NC1=C(CN=N1)C21CCN(S(=O)(=O)c2cccc3ccncc23)CC1` [US20250313563, Compound 947901], for which the half-maximal inhibitory concentration (IC50) in test [1] and in test [2] was less than 0.1 µM each time.

For the molecule `CC[C@@]1(c2cccc(-c3c(C)nn(C)c3C)c2)C2=CN=NC2NC2=C1C(=O)NC(C)(C)C2` (stereo partly drawn) [US20250313563, Compound 947408], the IC50 in test [1] was < 0.1 µM and 0.1 to 1 µM; in test [2] it was < 0.1 µM and 1 to 5 µM.

Regarding `CCC1(c2cccc(-c3ccnc(C)c3)c2)C2=C(CC(C)(C)NC2=O)NC2N=NC(C(F)F)=C21` (stereo not drawn) [US20250313563, Compound 949169], the IC50 in test [1] was < 0.1 µM and 0.1 to 1 µM; in test [2] it was < 0.1 µM and 1 to 5 µM.

Take `CC1(C)CC(=O)C2=C(C1)NC1=C(CN=N1)C21CCN(S(=O)(=O)c2cccc(C(F)F)c2)CC1` [US20250313563, Compound 947264]: the IC50 in test [1] is less than 0.1 µM; in test [2], < 0.1 µM and 0.1 to 1 µM.

`CCC1(c2cccc(C3=CN=NC3)c2)C2=CN=NC2NC2=C1C(=O)NC(C)(C)C2` (stereo not drawn) [US20250313563, Compound 944022]: the IC50 in test [1] was less than 0.1 µM; in test [2] it was 0.1 to 1 µM.

As for `CC[C@@]1(c2cccc(-c3ccnc(C)c3)c2)C2=CN=NC2NC2=C1C(=O)[C@@H](F)C(C)(C)C2` (stereo partly drawn) [US20250313563, Compound 945475], the IC50 in test [1] is < 0.1 µM and 1 to 5 µM; in test [2], 0.1 to 1 µM and > 5 µM.

As for `CCC1(c2cccc(-c3ccnc(C)c3OC)c2)C2=CN=NC2NC2=C1C(=O)NC(C)(C)C2` (stereo not drawn) [US20250313563, Compound 948794], the IC50 in test [1] was less than 0.1 µM; in test [2], 0.1 to 1 µM.

In the case of `CC1(C)CC(=O)C2=C(C1)NC1N=NC=C1C21CCCN(c2ccncc2)CC1` (stereo not drawn) [US20250313563, Compound 932633], the IC50 in test [1] and in test [2] was greater than 5 µM throughout.

`CC(C)(C)CC1N=NC2=C1[C@](C)(c1cccc(S(=O)(=O)C(F)(F)F)c1)C1=C(CC(C)(C)CC1=O)N2` (stereo partly drawn) [US20250313563, Compound 126395]: the IC50 in test [1] was 1 to 5 µM; in test [2], 0.1 to 1 µM.

Regarding `CCC1(c2cccc(C(F)(F)F)c2)C2=CN=NC2NC2=C1C(=O)N(C1=CN=NC1)CC2` (stereo not drawn) [US20250313563, Compound 950479], the IC50 in test [1] is less than 0.1 µM; in test [2], 0.1 to 1 µM.

On to `CC[C@@]1(c2cccc(-c3cc(C)nn3C)c2)C2=CN=NC2NC2=C1C(=O)NC(C)(C)C2` (stereo partly drawn) [US20250313563, Compound 943967], for which the IC50 in test [1] and in test [2] was greater than 5 µM each time.

`CCC1(c2cccc(-c3c(C)nn(C)c3C)c2)C2=C(CC(C)(C)NC2=O)NC2N=NC(C(F)(F)F)=C21` (stereo not drawn) [US20250313563, Compound 947568]: the IC50 in test [1] and in test [2] was less than 0.1 µM each time.

Turning to `CC(C)c1ccccc1S(=O)(=O)N1CCC2(CC1)C1=C(N=NC1)NC1=C2C(=O)CC(C)(C)C1` [US20250313563, Compound 947473], the IC50 in test [1] and in test [2] was 0.1 to 1 µM throughout.

As for `CC[C@]1(c2cccc(C(F)(F)F)c2)C2=CN=NC2NC2=C1C(=O)N[C@@H](c1ccccc1)C2` (stereo partly drawn) [US20250313563, Compound 945362], the IC50 is 1 to 5 µM in test [1] and greater than 5 µM in test [2].

For the molecule `CC[C@@]1(c2cccc(C(F)(F)F)c2)C2=C(N=NC2)NC2=C1C(=O)N[C@@H]2C` [US20250313563, Compound 945380], the IC50 in test [1] and in test [2] was greater than 5 µM in each case.

Regarding `CC1(C)CC(=O)C2=C(C1)NC1=C(CN=N1)[C@]21CCN(S(=O)(=O)c2cccc(F)c2)C1` [US20250313563, Compound 951861], the IC50 in test [1] and in test [2] was 0.1 to 1 µM each time.

In the case of `CC[C@@]1(c2cccc(-c3ccnc(C)c3F)c2)C2=C(CC(C)(C)CC2=O)NC2N=NC(C)=C21` (stereo partly drawn) [US20250313563, Compound 927340], the IC50 in test [1] and in test [2] was greater than 5 µM each time.

`CC1(C)CC(=O)C2=C(C1)NC1=C(CN=N1)C21CN(C2COC2)C1` [US20250313563, Compound 912076]: the IC50 lay in the range of 0.1 to 1 µM in test [1] and 1 to 5 µM in test [2].

Consider `CN1CC2(C1)C1=C(N=NC1)NC1=C2C(=O)CC(C)(C)C1` [US20250313563, Compound 913264], for which the IC50 in test [1] and in test [2] was less than 0.1 µM throughout.

For the molecule `CC1(C)CC(=O)C2=C(C1)NC1=C(CN=N1)C21CCN(S(=O)(=O)c2cnn(CCF)c2)CC1` [US20250313563, Compound 947903], the IC50 in test [1] and in test [2] was less than 0.1 µM throughout.

On to `CC1(C)CC(=O)C2=C(C1)NC1=C(CN=N1)C21CN(S(=O)(=O)C2CCCC2)C1` [US20250313563, Compound 917139], for which the IC50 in test [1] is < 0.1 µM and 0.1 to 1 µM; in test [2], < 0.1 µM and 0.1 to 1 µM.

On to `CC[C@@]1(c2cccc(-c3ccncc3C)c2)C2=CN=NC2NC2=C1C(=O)CC(C)(C)C2` (stereo partly drawn) [US20250313563, Compound 943991], for which the figures for the IC50 in test [1] and in test [2] were 0.1 to 1 µM and 1 to 5 µM, respectively.

Turning to `CC[C@@]1(c2cccc(-c3cn(C)nc3C)c2)C2=CN=NC2NC2=C1C(=O)NC(C)(C)C2` (stereo partly drawn) [US20250313563, Compound 945470], the IC50 in test [1] is < 0.1 µM and 0.1 to 1 µM; in test [2] it was < 0.1 µM and 1 to 5 µM.

Turning to `CC[C@]1(c2cccc(OC(C)C)c2)C2=CN=NC2NC2=C1C(=O)CC(C)(C)C2` (stereo partly drawn) [US20250313563, Compound 811564], the IC50 in test [1] and in test [2] was less than 0.1 µM each time.

In the case of `CC[C@@]1(c2cccc(N(C)c3cccc(C)n3)c2)C2=CN=NC2NC2=C1C(=O)CC(C)(C)C2` (stereo partly drawn) [US20250313563, Compound 932664], the IC50 in test [1] was less than 0.1 µM; in test [2], 0.1 to 1 µM.

On to `CCC1(c2ccccc2)C2=C(N=NC2)NC2=C1C(=O)CSC2` (stereo not drawn) [US20250313563, Compound 801406], for which the IC50 in test [1] was 1 to 5 µM; in test [2] it was greater than 5 µM.

As for `CC1(C)CC(=O)C2=C(C1)NC1=C(CN=N1)C21CN(S(=O)(=O)c2cccc(F)c2)C1` [US20250313563, Compound 918278], the IC50 in test [1] and in test [2] was less than 0.1 µM in each case.

As for `CC1(C)CC(=O)C2=C(C1)NC1=C(CN=N1)[C@]2(C)c1cc(C(F)(F)F)ccc1F` [US20250313563, Compound 816798], the IC50 in test [1] was less than 0.1 µM; in test [2] it was 0.1 to 1 µM.

For the molecule `CC[C@]1(c2cccc(Br)c2)C2=CN=NC2NC2=C1C(=O)C[C@H](C)C2` (stereo partly drawn) [US20250313563, Compound 810486], the results for the IC50 in test [1] and in test [2] were less than 0.1 µM and 0.1 to 1 µM, respectively.

As for `CCC1(c2cccc(C(F)(F)F)c2)C2=C(N=NC2)NC2=C1C(=O)NCCC2` (stereo not drawn) [US20250313563, Compound 913355], the IC50 in test [1] and in test [2] was greater than 5 µM throughout.

Turning to `CCC1(c2cccc(C(F)(F)F)c2)C2=CN=NC2NC2=C1C(=O)CC(C)(C)C2` (stereo not drawn) [US20250313563, Compound 785762], the IC50 in test [1] and in test [2] was less than 0.1 µM in each case.

On to `CCC1(c2cccc(S(=O)(=O)C3CC3)c2)C2=C(CC(C)(C)NC2=O)NC2N=NC(C)=C21` (stereo not drawn) [US20250313563, Compound 947562], for which the IC50 in test [1] and in test [2] was less than 0.1 µM each time.

In the case of `CCC1(c2cccc(S(=O)(=O)CC3CC3)c2)C2=CN=NC2NC2=C1C(=O)NC(C)(C)C2` (stereo not drawn) [US20250313563, Compound 948177], the IC50 is less than 0.1 µM in test [1] and 0.1 to 1 µM in test [2].

On to `Cc1ccc(C(=O)N2CC3(C2)CC2(CO3)C3=C(N=NC3)NC3=C2C(=O)CC(C)(C)C3)c(C)c1` (stereo not drawn) [US20250313563, Compound 947294], for which the IC50 in test [1] is less than 0.1 µM; in test [2] it was 0.1 to 1 µM.
